Legend:
[1] = test system: 129S6/SvEv mice; assay: Forced swim test (FST); immobility time; format: in vivo; conditions: for p, Immobility Time (s), FST Day 2, (R,S)-ketamine vs. FENM: (R,S)-ketamine 30 mg/kg vs. FENM 20 mg/kg; for p, Immobility Time (s), FST Day 2, Saline vs. drug: (R,S)-ketamine 30 mg/kg; for Behavior: Depressive-like: Prophylactic (7 days before stress)
Protocol: The FST was administered as previously described (47). Briefly, mice were placed into clear plastic buckets 20 cm in diameter and 23 cm deep filled ⅔ of the way with 22° C. water. Mice were videotaped from the side for 6 min and were exposed to the swim test on 2 consecutive days Immobility time was scored by an experimenter blind to the experimental groups.

[2] = test system: NR2A subunit of the NMDAR; assay: Western blotting of hippocampus after fear memory recall; format: in vivo, mice; conditions: one week prior to CFC, (R,S)-ketamine 30 mg/kg, FENM 20 mg/kg, vs saline
Protocol: Samples from mouse hippocampus and prefrontal cortex were dissected, snap frozen, and stored at −80° C. Brain tissue was homogenized in RIPA buffer with protease inhibitor (Thermo Fisher Scientific, Waltham, Mass.; Roche, Basel, Switzerland) using a motorized pestle mixer (Argos Technologies, Vernon Hills, Ill.) and spun at 1000 g×14 minutes to remove cell debris. Protein concentration was determined using a Bradford protein assay (Bio-Rad, Hercules, Calif.). 4× Laemmli buffer and β-mercaptoethanol (Bio-Rad, Hercules, Calif.) was added to the samples, which were then boiled at 90° C. for five minutes. 50 μg of each sample was separated by SDS/PAGE, and proteins were transferred onto PVDF membrane (GE Healthcare Life Sciences, Marlborough, Mass.). Membranes were then blocked in 1×TBS with 0.1% Tween-20 and 5% BSA for 1 hr at RT. Incubation with primary antibodies was performed at 4° C. overnight (rabbit anti-β-tubulin, 1:10000, Abc am, Cambridge, UK, ab6046; rabbit anti-NR2A, 1:1000, Alomone Labs, Jerusalem, Israel, AGC-002; rabbit anti-NR2B, 1:600, Alomone Labs, Jerusalem, Israel, AGC-003; mouse anti-GluR1, 1:1000, Millipore Sigma, Burlington, Mass., MAB2263) in 1×TBS with 0.1% Tween-20 and 5% BSA. […]

[3] = test system: 129S6/SvEv mice; assay: Anxiety-like behavior, summary of anxiety tests (OF, MB, EPM); format: in vivo
Protocol: Testing was performed as previously described (47). Briefly, the maze is a plus-cross-shaped apparatus consisting of four arms, two open and two enclosed by walls, linked by a central platform at a height of 50 cm from the floor. Mice were individually placed in the center of the maze facing an open arm and were allowed to explore the maze for 5 min. The time spent in and the number of entries into the open arms was used as an anxiety index. Videos were scored using ANY-maze behavior tracking software (Stoelting, Wood Dale, Ill.).
The OF assay was administered as previously described (47). Briefly, motor activity was quantified in 4 Plexiglas open field boxes 43×43 cm^2 (MED Associates, Georgia, Vt.). Two sets of 16 pulse-modulated infrared photobeams on opposite walls 2.5-cm apart recorded x-y ambulatory movements. Activity chambers were computer interfaced for data sampling at 100-ms resolution. The computer defined grid lines that dividing center and surround regions, with the center square consisting of four lines 11 cm from the wall.
The MB assay was conducted in a clean cage (10.5 in×5.5 in) containing soft pliable Beta Chip bedding (Northeastern Products Corp, Warrensburg, N.Y.). The cage contained 16 marbles set up in 4 rows of 4 across. Mice were given 30 minutes to explore and bury. At the end of the assay, the percentage of marbles buried was calculated.

[4] = Fisher's LSD, Baseline cohort, FENM 20 mg/kg, FIG. 6D
[5] = Saline vs. FENM (20 mg/kg), FIG. 8H
[6] = dose (20), drug 5 minutes after stress, FIG. 2F
[7] = non-stressed mice, FENM 20 mg/kg 1 hour before the start of the FST, vs saline

Structure (SMILES): NC12CC3CC(C1)CC(CCF)(C3)C2 [FENM, 1-amino-3-fluoroethyl-adamantane]
- p, Immobility Time Min 3 (sec), FST Day 2, Saline vs. FENM [1, 4]: 0.0346
- p, Immobility Time Min 4 (sec), FST Day 2, Saline vs. FENM [1, 4]: 0.2905
- p, Immobility Time Min 5 (sec), FST Day 2, Saline vs. FENM [1, 4]: 0.6448
- p, Immobility Time Min 6 (sec), FST Day 2, Saline vs. FENM [1, 4]: 0.5256
- p, Immobility Time (s), FST Day 2, (R,S)-ketamine vs. FENM ([1]; Fisher's PLSD after ANOVA, drug 5 minutes after stress, FIG. 3K): 0.0014
- p, Immobility Time (s), FST Day 2, Saline vs. drug ([1]; Fisher's PLSD after ANOVA, drug 5 minutes after stress, FENM 20 mg/kg, FIG. 3K): 0.0097
- p, Immobility Time (s), FST Day 2, (R,S)-ketamine vs. FENM ([1]; Fisher's PLSD after RMANOVA, drug 5 minutes after stress, FIG. 3J): 0.0069
- p, Immobility Time (s), FST Day 2, Saline vs. drug ([1]; Fisher's PLSD after RMANOVA, drug 5 minutes after stress, FENM 20 mg/kg, FIG. 3J): 0.0234
- Behavior: Depressive-like ([1]; dose 10 mg/kg): ↓
- Behavior: Depressive-like ([1]; dose 20 mg/kg): ↓
- Behavior: Depressive-like ([1]; dose 30 mg/kg): ↓
- Forced Swim Test Day 1, Immobility Time Min 1 (sec), p (Fisher's LSD) [1, 5]: <0.0001
- Forced Swim Test Day 1, Immobility Time Min 2 (sec), p (Fisher's LSD) [1, 5]: 0.0752
- Forced Swim Test Day 1, Immobility Time Min 3 (sec), p (Fisher's LSD) [1, 5]: 0.0422
- Forced Swim Test Day 1, Immobility Time Min 4 (sec), p (Fisher's LSD) [1, 5]: 0.4348
- Forced Swim Test Day 1, Immobility Time Min 5 (sec), p (Fisher's LSD) [1, 5]: 0.8223
- Forced Swim Test Day 1, Immobility Time Min 6 (sec), p (Fisher's LSD) [1, 5]: 0.0677
- Forced Swim Test Day 2, Immobility Time (sec), p (Fisher's LSD) ([1]; Saline vs. FENM (20 mg/kg), after ANOVA, FIG. 8K): 0.3636
- Forced Swim Test Day 2, Immobility Time (sec), p (Fisher's LSD) ([1]; Saline vs. FENM (20 mg/kg), after RMANOVA, FIG. 8J): 0.3085
- p, Fisher's PLSD Saline vs. drug, FST Day 2 Immobility Time Min 1 (s) [1, 6]: 0.0237
- p, Fisher's PLSD Saline vs. drug, FST Day 2 Immobility Time Min 2 (s) [1, 6]: 0.0034
- p, Fisher's PLSD Saline vs. drug, FST Day 2 Immobility Time Min 3 (s) [1, 6]: 0.0763
- p, Fisher's PLSD Saline vs. drug, FST Day 2 Immobility Time Min 4 (s) [1, 6]: 0.1586
- p, Fisher's PLSD Saline vs. drug, FST Day 2 Immobility Time Min 5 (s) [1, 6]: 0.0575
- p, Fisher's PLSD Saline vs. drug, FST Day 2 Immobility Time Min 6 (s) [1, 6]: 0.2137
- p, Fisher's PLSD Saline vs. drug, FST Day 2 Immobility Time (s) ([1]; dose (20), drug 5 minutes after stress, after ANOVA, FIG. 2G): 0.0024
- immobility, day 1 of the FST [1, 7]: comparable
- immobility, day 2 of the FST [1, 7]: comparable
- p, Immobility Time (sec), FST Day 1, Saline vs. FENM ([1]; t-test, Baseline cohort, FENM 20 mg/kg, FIG. 6C): 0.7086
- p, Immobility Time (sec), FST Day 2, Saline vs. FENM ([1]; t-test, Baseline cohort, FENM 20 mg/kg, FIG. 6E): 0.7847
- NR2A expression in the hippocampus [2]: comparable
- behavior in all anxiety tests, with the exception of the time spent in the center of the OF ([3]; 5 min after context re-exposure 1, (R,S)-ketamine 30 mg/kg, FENM 20 mg/kg, vs saline): did not alter behavior
- behavior in all anxiety tests ([3]; 5 minutes prior to context re-exposure 1 (24 h after CFC), (R,S)-ketamine 30 mg/kg, FENM 20 mg/kg, vs saline): did not alter behavior
- Behavior: Anxiety-like ([3]; Antidepressant (5 min after stress), dose 20 mg/kg): ↓
- Behavior: Anxiety-like ([3]; Antidepressant (5 min after stress), dose 30 mg/kg): ↓
- Behavior: Anxiety-like ([3]; Extinction (5 min after re-exposure 1), dose 20 mg/kg): ↓
